From patent publication US6610846B1, “Heteroaromatic glucokinase activators” (Hoffman-La Roche Inc., priority 1999, dated 2003)

Assays:
C57BL/6J mice = experiment: Glucokinase activator in vivo screen (blood glucose after oral dosing); details: administered orally, 50 mg/kg, C57BL/6J mice fasted two hours; decrease in blood glucose compared to vehicle over six hours (Example B)
Protocol: Glucokinase Activator In Vivo Screen Protocol
C57BL/6J mice are orally dosed via gavage with Glucokinase (GK) activator at 50 mg/kg body weight following a two hour fasting period. Blood glucose determinations are made five times during the six hour post-dose study period. Mice (n=6) are weighed and fasted for a two hour period prior to oral treatment.

| Structure (SMILES) | glucokinase activator in vivo activity (C57BL/6J mice) | melting point [°C] |
| --- | --- | --- |
| O=C(Nc1nccs1)C(CC1CCCC1)c1ccc(S(=O)(=O)C(F)(F)F)cc1 (stereo not drawn) [Example 11(A), 3-Cyclopentyl-N-thiazol-2-yl-2-(4-trifluoromethanesulfonyl-phenyl)-propionamide] | excellent glucokinase activator in vivo activity | 189 to 191 |
| O=C(Nc1ccccn1)C(CC1CCCC1)c1ccc(S(=O)(=O)C(F)(F)F)cc1 (stereo not drawn) [Example 43(A), 3-Cyclopentyl-N-pyridin-2-yl-2-(4-trifluoromethanesulfonyl-phenyl)-propionamide] | excellent glucokinase activator in vivo activity | 151 to 153 |
| CS(=O)(=O)c1ccc(C(CC2CCCC2)C(=O)Nc2ccccn2)cc1[N+](=O)[O-] (stereo not drawn) [Example 44, 3-Cyclopentyl-2-(4-methanesulfonyl-3-nitrophenyl)-N-pyridin-2-yl-propionamide] | excellent glucokinase activator in vivo activity | 92 to 95 |
| O=C(Nc1ccccn1)C(CC1CCCC1)c1ccc(Cl)c([N+](=O)[O-])c1 (stereo not drawn) [Example 65, 2-(4-Chloro-3-nitro-phenyl)-3-cyclopentyl-N-pyridin-2-yl-propionamide] | excellent glucokinase activator in vivo activity | 48 to 52 |
| O=C(Nc1ccccn1)C(CC1CCCC1)c1ccc(C(F)(F)F)c(F)c1 (stereo not drawn) [Example 71, 3-Cyclopentyl-2-(3-fluoro-4-trifluoromethyl-phenyl)-N-pyridin-2-yl-propionamide] | excellent glucokinase activator in vivo activity | 40 to 44 |
| CS(=O)(=O)c1ccc(C(CC2CCCC2)C(=O)Nc2nccs2)cc1Br (stereo not drawn) [Example 72, 2-(3-Bromo-4-methanesulfonyl-phenyl)-3-cyclopentyl-N-thiazol-2-yl-propionamide] | excellent glucokinase activator in vivo activity | 106 to 107 |
| CS(=O)(=O)c1ccc(C(CC2CCCC2)C(=O)Nc2ccccn2)cc1Br (stereo not drawn) [Example 73, 2-(3-Bromo-4-methanesulfonyl-phenyl)-3-cyclopentyl-N-pyridin-2-yl-propionamide] | excellent glucokinase activator in vivo activity | 99 to 101 |
| CS(=O)(=O)c1ccc(C(CC2CCCC2)C(=O)Nc2nccs2)cc1C#N (stereo not drawn) [Example 75, 2-(3-Cyano-4-methanesulfonyl-phenyl)-3-cyclopentyl-N-thiazol-2-yl-propionamide] | excellent glucokinase activator in vivo activity | 145 to 148 |
| CS(=O)(=O)c1ccc(C(CC2CCCC2)C(=O)Nc2ccccn2)cc1C#N (stereo not drawn) [Example 76, 2-(3-Cyano-4-methanesulfonyl-phenyl)-3-cyclopentyl-N-pyridin-2-yl-propionamide] | excellent glucokinase activator in vivo activity | 87 to 90 |
| CCS(=O)(=O)c1ccc(C(CC2CCCC2)C(=O)Nc2nccs2)cc1 (stereo not drawn) [Example 77, 3-Cyclopentyl-2-(4-ethanesulfonyl-phenyl)-N-thiazol-2-yl-propionamide] | excellent glucokinase activator in vivo activity | 178 to 179 |
| CS(=O)(=O)c1ccc(C(CC2CCCC2)C(=O)Nc2nccs2)cc1C(F)(F)F (stereo not drawn) [Example 89(A), 3-Cyclopentyl-2-(4-methanesulfonyl-3-trifluoromethyl-phenyl)-N-thiazol-2-yl-propionamide] | excellent glucokinase activator in vivo activity | 95 to 100 |
| O=C(Nc1nccs1)C(CC1CCCC1)c1ccc(OC(F)(F)F)cc1 (stereo not drawn) [Example 112, 3-Cyclopentyl-N-thiazol-2-yl-2-(4-trifluoromethoxy-phenyl)-propionamide] | excellent glucokinase activator in vivo activity | 168 to 170 |
| COCS(=O)(=O)c1ccc(C(CC2CCCC2)C(=O)Nc2nccs2)cc1 (stereo not drawn) [Example 125, 3-Cyclopentyl-2-(4-methoxymethanesulfonyl-phenyl)-N-thiazol-2-yl-propionamide] | excellent glucokinase activator in vivo activity | 157 to 160 |
| Cc1csc(NC(=O)[C@H](CC2CCCC2)c2ccc(S(C)(=O)=O)cc2)n1 [Example 128, 3-Cyclopentyl-2(R)-(4-methanesulfonyl-phenyl)-N-(4-methyl-thiazol-2-yl)-propionamide] | excellent glucokinase activator in vivo activity | 83 to 87 |
| Cc1cnc(NC(=O)[C@H](CC2CCCC2)c2ccc(S(C)(=O)=O)cc2)s1 [Example 129, 3-Cyclopentyl-2(R)-(4-methanesulfonyl-phenyl)-N-(5-methyl-thiazol-2-yl)-propionamide] | excellent glucokinase activator in vivo activity | 81 to 85 |
| CS(=O)(=O)c1ccc(C(CC2CCCC2)C(=O)Nc2ncc(Cl)s2)cc1 (stereo not drawn) [Example 130, N-(5-Chloro-thiazol-2-yl)-3-cyclopentyl-2-(4-methanesulfonyl-phenyl)-propionamide] | excellent glucokinase activator in vivo activity | 76 to 79 |
| CS(=O)(=O)c1ccc([C@@H](CC2CCCC2)C(=O)Nc2ncc(Cl)s2)cc1 [Example 131, N-(5-Chloro-thiazol-2-yl)-3-cyclopentyl-2(R)-(4-methanesulfonyl-phenyl)-propionamide] | excellent glucokinase activator in vivo activity | 83 to 88 |
| Cc1nccc(NC(=O)C(CC2CCCC2)c2ccc(S(C)(=O)=O)c(C(F)(F)F)c2)n1 (stereo not drawn) [Example 155(B)(c), 3-Cyclopentyl-2-(4-methanesulfonyl-3-trifluoromethyl-phenyl)-N-(2-methyl-pyrimidin-4-yl)-propionamide] | excellent glucokinase activator in vivo activity | – |
| CS(=O)(=O)c1ccc([C@@H](CC2CCCC2)C(=O)Nc2ccncn2)cc1C(F)(F)F [Example 157(A), 3-Cyclopentyl-2(R)-(4-methanesulfonyl-3-trifluoromethyl-phenyl)-N-pyrimidin-4-yl-propionamide] | excellent glucokinase activator in vivo activity | 85 to 90 |
| CS(=O)(=O)c1ccc([C@@H](CC2CCCC2)C(=O)Nc2cnccn2)cc1C(F)(F)F [Example 157(B)(a), 3-Cyclopentyl-2(R)-(4-methanesulfonyl-3-trifluoromethyl-phenyl)-N-pyrazin-2-yl-propionamide] | excellent glucokinase activator in vivo activity | – |
| Cc1nccc(NC(=O)[C@H](CC2CCCC2)c2ccc(S(C)(=O)=O)c(C(F)(F)F)c2)n1 [Example 157(B)(b), 3-Cyclopentyl-2(R)-(4-methanesulfonyl-3-trifluoromethyl-phenyl)-N-(2-methyl-pyrimidin-4-yl)-propionamide] | excellent glucokinase activator in vivo activity | – |
